Measured values reported in publication PMC5291411, “Cytotoxic conjugates of betulinic acid and substituted triazoles prepared by Huisgen Cycloaddition from 30-azidoderivatives” (PLoS ONE, 2017).
pIC50: −log10 of the molar value.

Columns and labels:
CCRF-CEM = assay: Cytotoxic MTS assay, CCRF-CEM; type: cell-based; details: Homo sapiens, 72 h, T-lymphoblastic leukemia
Source text: (§1) Cytotoxic activity of all synthesized compounds was investigated in vitro against eight human cancer cell lines and two non-tumor fibroblasts using the standard MTS test (Table 1). The cancer cell lines were derived from T-lymphoblastic leukemia CCRF-CEM, leukemia K562 and their multiresistant counterparts expressing P-glycoprotein, MRP1 and LRP proteins (CEM-DNR, K562-TAX), solid tumors including lung (A549) and colon (HCT116, HCT116p53-/-) carcinomas, osteosarcoma cell line (U2OS), and for comparison, tests were performed on two human non-cancer fibroblast cell lines (BJ, MRC-5).
(§2) Biological assays were performed in concordance with our previous publications [[29], [58]; [60]; [61]]. All cells (if not indicated otherwise) were purchased from the American Tissue Culture Collection (ATCC). The CCRF-CEM line is derived from T lymphoblastic leukemia, evincing high chemosenzitivity, K562 represent cells from an acute myeloid leukemia patient sample with bcr-abl translocation, U2OS line is derived from osteosarcoma, HCT116 is colorectal tumor cell line and its p53 gene knock-down counterpart (HCT116p53-/-, Horizon Discovery Ltd, UK) is a model of human cancers with p53 mutation frequently associated with poor prognosis, A549 line is lung adenocarcinoma. The daunorubicin resistant subline of CCRF-CEM cells (CEM-DNR bulk) and paclitaxel resistant subline K562-TAX were selected in our laboratory by the cultivation of maternal cell lines in increasing concentrations of daunorubicine or paclitaxel, respectively. The CEM-DNR bulk cells overexpress MRP-1 and P-glycoprotein protein, while K562-TAX cells overexpress P-glycoprotein only. Both proteins belong to the family of ABC transporters and are involved in the primary and/or acquired multidrug resistance phenomenon. MRC-5 and BJ cell lines were used as a non-tumor control and represent human fibroblasts. The cells were maintained in nunc/corning 80 cm^2 plastic tissue culture flasks and cultured in cell culture medium according to ATCC or Horizon recommendations (DMEM/RPMI 1640 with 5 g/L glucose, 2 mM glutamine, 100 U/mL penicillin, […] streptomycin, 10% fetal calf serum, and NaHCO3).
(§3) MTS assay was performed at Institute of Molecular and Translational Medicine by robotic platform (HighResBiosolutions). Cell suspensions were prepared and diluted according to the particular cell type and the expected target cell density (25000–35000 cells/mL based on cell growth characteristics). Cells were added by automatic pipetor (30 μL) into 384 well microtiter plates. All tested compounds were dissolved in 100% DMSO and four-fold dilutions of the intended test concentration were added in 0.15 μL aliquots at time zero to the microtiter plate wells by the echoacustic non-contact liquid handler Echo550 (Labcyte). The experiments were performed in technical duplicates and three biological replicates at least. The cells were incubated with the tested compounds for 72 h at 37°C, in a 5% CO2 atmosphere at 100% humidity. At the end of the incubation period, the cells were assayed by using the MTS test. Aliquots (5 μL) of the MTS stock solution were pipetted into each well and incubated for additional 1–4 h. After this incubation period, the optical density (OD) was measured at 490 nm with an Envision reader (Perkin Elmer). Tumor cell survival (TCS) was calculated by using the following equation: TCS = (ODdrug-exposed well/mean ODcontrol wells) × 100%. The IC50 value, the drug concentration that is lethal to 50% of the tumor cells, was calculated from the appropriate dose-response curves in Dotmatics software.

CEM-DNR = assay: Cytotoxic MTS assay, CEM-DNR; type: cell-based; details: Homo sapiens, 72 h, daunorubicin resistant subline of CCRF-CEM
Source text: as §1, §2, §3

K562 = assay: Cytotoxic MTS assay, K562; type: cell-based; details: Homo sapiens, 72 h, leukemia
Source text: as §1, §2, §3

K562-TAX = assay: Cytotoxic MTS assay, K562-TAX; type: cell-based; details: Homo sapiens, 72 h, paclitaxel resistant subline of K562
Source text: as §1, §2, §3

A549 = assay: Cytotoxic MTS assay, A549; type: cell-based; details: Homo sapiens, 72 h, lung adenocarcinoma
Source text: as §1, §2, §3

HCT116 = assay: Cytotoxic MTS assay, HCT116; type: cell-based; details: Homo sapiens, HCT-116, 72 h, colorectal tumor
Source text: as §1, §2, §3

HCT116p53-/- = assay: Cytotoxic MTS assay, HCT116p53-/-; type: cell-based; details: Homo sapiens, 72 h, p53 knock-down colorectal tumor
Source text: as §1, §2, §3

U2OS = assay: Cytotoxic MTS assay, U2OS; type: cell-based; details: Homo sapiens, 72 h, osteosarcoma
Source text: as §1, §2, §3

BJ = assay: Cytotoxic MTS assay, BJ fibroblasts; type: cell-based; details: Homo sapiens, 72 h, non-tumor fibroblasts
Source text: as §1, §2, §3

MRC-5 = assay: Cytotoxic MTS assay, MRC-5 fibroblasts; type: cell-based; details: Homo sapiens, MRC5, 72 h, non-tumor fibroblasts
Source text: as §1, §2, §3

## C=C(CBr)[C@@H]1CC[C@]2(C(=O)O)CC[C@]3(C)C(CCC4[C@@]5(C)CC[C@H](O[Si](c6ccccc6)(c6ccccc6)c6ccccc6)C(C)(C)C5CC[C@]43C)C12 (stereo partly drawn) [Compound 5, 3β-O-Triphenylsilyl-30-bromobetulinic acid]
CCRF-CEM
  pIC50: < 4.30
CEM-DNR
  pIC50: 4.88
K562
  pIC50: < 4.30
K562-TAX
  pIC50: 4.91
A549
  pIC50: < 4.30
HCT116
  pIC50: 4.45
HCT116p53-/-
  pIC50: 4.51
U2OS
  pIC50: 4.55
BJ
  pIC50: < 4.30
MRC-5
  pIC50: < 4.30
other
  melting point: 208 to 210 °C
